Assay results: patent publication US6864275B1, “Compounds and methods for use thereof in the treatment of cancer” (UAF Technologies and Research, LLC, priority 1997, dated 2005)
pIC50: −log10 of the molar value.

Assays:
[1] = test system: B16 murine melanoma; assay: MTT cell growth inhibition, B16 melanoma cells; type: cell-based; conditions: 3-6 days incubation
Experimental: (§1) The following cell culture tests were performed to test the toxicity of benzimidazole derivative compounds of the present invention on colon and melanoma tumor cells. The viability of the cells were tested by looking at MTT (3-[4,5-dimethylthiazol-2-yl]-2,5-diphenyltetrazolium bromide) reduction. MTT assay is a well known measure of cell viability.
(§2) The colon tumor cells (HT29) and the melanoma cells (B16 murine melanoma) were seeded (1000-2000 cells) into each well of a 96-well microtiter plate and allowed to grow. Twenty-four hours later, increasing concentrations of each benzimidazole derivative were added to the plates and the cells were allowed to incubate for 3-6 days in the presence of the drugs. MTT reagent was then added to the wells and allowed to incubate for 4 hours at 37° C., after which the formazan metabolite was solubilized with acidic isopropanol and the absorbance was read. Experimental controls included blank wells to which no cells were added (zero point of formazan absorbance) and control wells to which no drug was added (highest level of formazan absorbance). Each drug concentration was tested in duplicate and the resulting average absorbance was plotted against drug concentration using the EZ-ED50 computer program on a personal computer interfaced to the microtiter plate reader. […] The IC50 value is then derived from this equation by EZ-ED50.

[2] = test system: colon tumor cells (HT29); assay: MTT cell growth inhibition, HT29 colon tumor cells; type: cell-based; conditions: 3-6 days incubation, read-out: IC50 Human Colon Carcinoma
Experimental: as §1, §2

[3] = test system: Tubulin; assay: Microtubule inhibition assay (tubulin polymerization, absorbance at 350 nm); type: biochemical, bovine; conditions: compound at 2 μM, after 30 minutes
Experimental: The benzimidazole derivatives of this invention were evaluated for their ability to inhibit formation of microtubules, following the procedure of Luduena, R. F. and M. C. […] Microtubule polymerization was followed by performing the reaction in a cuvette and monitoring UV absorbance at 350 nm, allowing direct visualization of the time course of the polymerization.

SMILES	pIC50 [1]	pIC50 [2]	Tubulin Polymerization Inhibition, % Inhibition [3]
COC(=O)Nc1nc2ccc(C(=O)N(C)C3CCCCC3)cc2[nH]1 [Cpd. No. 2-16]	6.49	6.64	39%
COC(=O)Nc1nc2ccc(C(=O)OCCOCCCl)cc2[nH]1 [3-2]	7.09	7.44	14%
CCC(CC)NC(=O)c1ccc2nc(NC(=O)OC)[nH]c2c1 [2-9]	6.43	3.64	16%
COC(=O)Nc1nc2ccc(C(=O)OCC(F)(F)C(F)(F)F)cc2[nH]1 [3-14]	3.23	3.50	23%
COC(=O)Nc1nc2ccc(C(=O)NCCCN(C)C)cc2[nH]1 [2-10]	3.26	3.35	5%
COC(=O)Nc1nc2ccc(C(=O)NCCC(C)C)cc2[nH]1 [2-5]	5.23	5.29	37%
COC(=O)Nc1nc2ccc(C(=O)OCCOCCO)cc2[nH]1 [Cpd. No. 3-5]	5.59	–	10%
COC(=O)Nc1nc2ccc(C(=O)Nc3ccccc3O)cc2[nH]1 [2-13]	5.55	5.64	27%
C=CCOC(=O)c1ccc2nc(NC(=O)OC)[nH]c2c1 [3-3]	6.66	7.23	42%
COC(=O)Nc1nc2ccc(C(=O)NC(C)CC(C)C)cc2[nH]1 (centres unmarked) [Cpd. No. 2-6]	6.08	6.30	12%
CCN(CC)CCCNC(=O)c1ccc2nc(NC(=O)OC)[nH]c2c1 [Cpd. No. 2-1]	3.28	3.40	24%
COC(=O)Nc1nc2ccc(C(=O)NCCC(C)(C)C)cc2[nH]1 [2-7]	6.39	6.38	43%
COC(=O)Nc1nc2ccc(C(=O)OC(C)C3CC3)cc2[nH]1 (centres unmarked) [3-16]	7.21	7.52	44%
COC(=O)Nc1nc2ccc(C(=O)OCC=CCO)cc2[nH]1 [3-10]	6.00	6.22	none
COC(=O)Nc1nc2c(OC(=O)c3cc(OC)c(OC)c(OC)c3)cccc2[nH]1 [Cpd. No. 1-2]	4.85	4.58	35%
COC(=O)Nc1nc2ccc(C(=O)NCCN3CCOCC3)cc2[nH]1 [2-2]	4.09	3.92	11%
COC(=O)Nc1nc2ccc(C(=O)NCC3CCCO3)cc2[nH]1 (centres unmarked) [2-4]	4.33	4.45	36%
COC(=O)Nc1nc2ccc(C(=O)OCCN(C)C)cc2[nH]1 [Cpd. No. 3-8]	4.15	4.31	none
CCCCN(C)C(=O)c1ccc2nc(NC(=O)OC)[nH]c2c1 [2-17]	5.34	5.60	none
COC(=O)Nc1nc2ccc(C(=O)OC(CCl)CCl)cc2[nH]1 [Cpd. No. 3-12]	6.00	5.68	11%

SMILES	pIC50 [1]	pIC50 [2]	Tubulin Polymerization Inhibition, % Inhibition [3]
COC(=O)Nc1nc2ccc(C(=O)OCc3ccccc3)cc2[nH]1 [3-7]	7.07	7.48	26%
COC(=O)Nc1nc2ccc(OC(=O)c3cc(OC)c(OC)c(OC)c3)cc2[nH]1 [Cpd. No. 4-1]	6.60	6.77	2%
CCC(C)CNC(=O)c1ccc2nc(NC(=O)OC)[nH]c2c1 (centres unmarked) [2-8]	5.30	5.31	none
CCOCCOCCOC(=O)c1ccc2nc(NC(=O)OC)[nH]c2c1 [Cpd. No. 3-4]	7.08	7.57	12%
COC(=O)Nc1nc2ccc(C(=O)OCCC(C)CC(C)(C)C)cc2[nH]1 (centres unmarked) [3-20]	> 9.00	7.89	35%
COC(=O)Nc1nc2ccc(C(=O)OCCF)cc2[nH]1 [3-17]	6.01	6.52	8%
COC(=O)Nc1nc2ccc(C(=O)NCCN(C)C)cc2[nH]1 [Cpd. No. 2-14]	3.40	3.80	none
COC(=O)Nc1nc2ccc(C(=O)OCCCCCO)cc2[nH]1 [3-11]	3.61	3.97	50%
COC(=O)Nc1nc2ccc(C(=O)NNc3ccccc3)cc2[nH]1 [Cpd. No. 2-12]	3.57	4.60	50%
COC(=O)Nc1nc2c(OC(=O)CC(C)CC(C)(C)C)cccc2[nH]1 (centres unmarked) [Cpd. No. 1-1]	4.70	4.80	38%
COC(=O)Nc1nc2ccc(C(=O)OC(CF)CF)cc2[nH]1 [3-15]	6.03	6.21	45%
COC(=O)Nc1nc2ccc(C(=O)Nc3cc(OC)c(OC)c(OC)c3)cc2[nH]1 [2-15]	5.21	5.38	5%
COC(=O)Nc1nc2ccc(C(=O)OC(CBr)CBr)cc2[nH]1 [3-18]	5.92	5.68	none
CCCN(CCC)C(=O)c1ccc2nc(NC(=O)OC)[nH]c2c1 [2-18]	5.03	5.51	42%
COCCNC(=O)c1ccc2nc(NC(=O)OC)[nH]c2c1 [2-11]	4.52	4.77	19%
CCC(C)NC(=O)c1ccc2nc(NC(=O)OC)[nH]c2c1 (centres unmarked) [2-3]	5.54	5.80	26%
COC(=O)Nc1nc2ccc(C(=O)OCCCCl)cc2[nH]1 [3-9]	6.68	7.27	none
COC(=O)Nc1nc2ccc(C(=O)OCCC(C)CCC=C(C)C)cc2[nH]1 (centres unmarked) [3-21]	7.11	7.34	2%
COC(=O)Nc1nc2ccc(NC(=O)CC(C)CC(C)(C)C)cc2[nH]1 (centres unmarked) [Cpd. No. 5-1]	5.18	5.15	none
